One test relates to Or83b2 mutant flies. The experiment in a line: T-maze choice assay, avoidance behavior to CO2, Or83b2 mutant flies. Type of test: in vivo, Drosophila. The settings on record: odourant with CO2. As for the experimental part: (a) A t-maze is used to show preference to a test odor or to a solvent. Flies are starved 24 hrs prior to assay. All assays performed for 1-min in the dark. A negative preference index indicates avoidance. (a) Flies in a T-maze were offered a choice between a 15 ml tube infused with 0.1ml of CO2 prior to start of assay, and another that was infused with air. (b) wildtype and Or83b−/− flies were presented with CO2, a mixture of CO2 and 2,3-butanedione (d4on), or d4on alone. (c) Flies were exposed to 10 ul d4on 10^−2 for 1 min, allowed to recover for 2 min in clean air and then assayed for avoidance to CO2. A control exposure to 1 min of 2-methylphenol (2 mpol) at 10^−2 and then a recovery period of 2 min is also assayed for avoidance behavior to CO2. (d) Flies are exposed to d4on for 1 min, allowed to recover for 2 min, and then assayed for behavior to ethyl acetate (2AC). Behavior to 2AC without pre-exposure is also measured. […]
T-maze behavioral testing using Drosophila stress odour, CO2, and mixtures were using techniques known in the art, with some modifications. […] The avoidance response was calculated as a Preference Index (PI)=(number of flies in test arm−number of flies in control arm)/(total number of flies in assay). […] The avoidance response was calculated as a Preference Index (PI)=(number of flies in test arm−number of flies in control arm)/(total number of flies in assay). […]

Test [1] relates to CO2-sensitive ab1C neurons. Put plainly: single-sensillum electrophysiology, baseline (spontaneous) activity of ab1C neurons. In kind it is cell-based, Drosophila. As for the experimental part:
A number of individual odourants were tested for their ability to inhibit the baseline activity of the neuron using single-sensillum electrophysiology. […] Extracellular single-unit recordings were performed. Odourant stimuli were delivered via Pasteur pipette odour cartridges (see, FIG. 16). Chemicals were of the highest purity available, typically>99% (Sigma-Aldrich). All odourants were diluted in paraffin oil. A controlled volume of air 5 ml/sec was puffed through the odour cartridge containing vapours, and was delivered into a constant humidified airstream of 10 ml/sec that was passed over the fly antenna. […] CO2 stimulus was pulsed through a separate delivery system that delivered controlled pulses (variable 2.5 ml/sec-6.5 ml/sec) into the same humidified airstream, from either a 1%, 5% or 100% tank of CO2 (Airgas). […] Unless mentioned, responses were quantified by subtraction of spontaneous activity from activity during the stimulus. […] Both these compounds are present at electrophysiologically relevant concentrations in Drosophila food sources: 1-hexanol has been detected in various types of fruit including mango, melon, strawberry, passion fruit, muskmelon and banana; 2,3-butanedione is a natural by-product of fermentation by yeast and is thus also present in beer.

Consider `CC(=O)C(C)=O` [2,3-butanedione], for which the “avoidance behavior to CO2 (Preference Index)” value with Or83b2 mutant flies was “significantly reduced”. Further, the “inhibition of spontaneous activity of ab1C neurons” value in test [1] is listed as “strongly inhibit”.

`CCCCCCO` [1-hexanol]: in the test on Or83b2 mutant flies, the “avoidance behavior to CO2 (Preference Index)” value is recorded as “significantly reduced”. In test [1], the “inhibition of spontaneous activity of ab1C neurons” value is reported as “strongly inhibit”.
